Literature values, collected in patent publication US20090236541A1, “System and Methods for Optical Imaging” (General Electric Company, priority 2008, published 2009).

Legend:
[1] = test system: mitochondria and/or the endoplasmic reticulum; details: concentration-dependent manner
[2] = test system: heart of a living laboratory rat; details: living laboratory rat after a thoracotomy
[3] = small molecule form

SMILES | partitioning into mitochondria and/or endoplasmic reticulum [1] | imaging of blood flow in the heart [2] | solubility in blood [3]
CN1C(=CC=C2CCCC(C=CC3=[N+](C)c4ccccc4C3(C)C)=C2Cl)C(C)(C)c2ccccc21.[O-][Cl+3]([O-])([O-])[O-] [IR-786] | partitions efficiently into mitochondria and/or the endoplasmic reticulum | successfully applied | –
CC1(C)C(/C=C/C=C/C=C/C=C2\N(CCCCS(=O)(=O)O)c3ccc4ccccc4c3C2(C)C)=[N+](CCCCS(=O)(=O)[O-])c2ccc3ccccc3c21 [Indocyanine green, indocyanine green] | – | – | somewhat less soluble in blood
